According to publication PMC4118284 (Leukemia, 2012):
Where two headings read alike, the source gives them in different places.

Experiments:
[1] = tested on: newly diagnosed patients with FLT3-mutant AML; conditions: sorafenib plus induction chemotherapy; 15 newly diagnosed patients with FLT3-mutant AML; cited from earlier work
[2] = tested on: newly diagnosed patients with acute myeloid leukemia (AML); conditions: 50 mg twice daily; either arm
[3] = tested on: patients with FLT3-mutant and FLT3-wild-type AML; conditions: single agent, cited from earlier work; for Patients with ≥ 50% peripheral blood blast reduction: 75 mg three times daily or 50 mg or 100 mg twice daily
[4] = tested on: newly diagnosed patients with acute myeloid leukemia (AML); assay: Phase 1b trial: efficacy; assay type: in vivo, human
[5] = Plasma concentrations of midostaurin and metabolites; conditions: for Plasma concentration, Max / Plasma concentration, Median / Plasma concentration, Min: 50 mg BID
[6] = Concomitant (days 1-7 and 15-21), Induction cycle 1, day 1
[7] = Concomitant, First consolidation cycle, day 1.5
[8] = Concomitant, First consolidation cycle, day 15.5
[9] = Concomitant, First consolidation cycle, day 29.5
[10] = Concomitant, Induction cycle 1, Day 1 (+ 2 h)
[11] = Concomitant, Induction cycle 1, Day 1 (+ 4 h)
[12] = Concomitant, Induction cycle 1, day 2
[13] = Concomitant, Induction cycle 1, day 4
[14] = Concomitant, Induction cycle 1, day 15 (+ 2 h)
[15] = Concomitant, Induction cycle 1, day 15 (+ 4 h)
[16] = Sequential (days 8-21), Induction cycle 1, day 8
[17] = Sequential, First consolidation cycle, day 1.5
[18] = Sequential, First consolidation cycle, day 15.5
[19] = Sequential, First consolidation cycle, day 29.5
[20] = Sequential, Induction cycle 1, day 8 (+ 2 h)
[21] = Sequential, Induction cycle 1, day 8 (+ 4 h)
[22] = Sequential, Induction cycle 1, day 9
[23] = Sequential, Induction cycle 1, day 15
[24] = Sequential, Induction cycle 1, day 22.5
[25] = Sequential, Induction cycle 1, day 29.5

CNC(=O)c1cc(Oc2ccc(NC(=O)Nc3ccc(Cl)c(C(F)(F)F)c3)cc2)ccn1 [Sorafenib]
CR rate [1]: 93%

CO[C@@H]1[C@H](N(C)C(=O)c2ccccc2)C[C@H]2O[C@]1(C)n1c3ccccc3c3c4c(c5c6ccccc6n2c5c31)C(=O)NC4 [midostaurin, Midostaurin]
Deaths on treatment or within 28 days of the last dose of study drug [2]: No deaths | Patients with ≥ 50% peripheral blood blast reduction ([3]; FLT3-mutant (n = 55)): 70% | Patients with ≥ 50% peripheral blood blast reduction ([3]; FLT3-wild-type (n = 60)): 42% | Complete remissions (CRs) [3]: not observed | Kaplan-Meier OS probability ([4]; 50 mg twice daily, FLT3-mutant AML, 1 year): 0.85 | Kaplan-Meier OS probability ([4]; 50 mg twice daily, FLT3-mutant AML, 2 years): 0.62 | Complete remission (CR) rate ([4]; 50 mg twice daily, FLT3-mutant, 12 of 13 patients): 92% | Kaplan-Meier OS probability ([4]; 50 mg twice daily, FLT3-wild-type AML, 1 year): 0.78 | Kaplan-Meier OS probability ([4]; 50 mg twice daily, FLT3-wild-type AML, 2 years): 0.52 | Complete remission (CR) rate ([4]; 50 mg twice daily, FLT3-wild-type, 20 of 27 patients): 74% | Complete remission (CR) rate ([4]; 50 mg twice daily, concomitant group, 16 of 20 patients): 80% | Patients who have died ([4]; 50 mg twice daily, of four patients with TKD mutations): none | Complete remission (CR) rate ([4]; 50 mg twice daily, sequential group, 16 of 20 patients): 80% | Complete remission rate ([4]; 100 mg twice daily (dose schedules I and II), 13 of 29 patients): 45% | Patients surviving more than 4 years ([4]; 100 mg twice daily, FLT3-mutant blasts, two patients): 33% | Complete remission rate ([4]; 100 mg twice daily, FLT3-wild-type blasts, 8 of 23): 35% | Patients surviving more than 4 years ([4]; 100 mg twice daily, FLT3-wild-type blasts, nine patients): 39% | Plasma concentration, Max [5, 6]: LLOQ | Plasma concentration, Median [5, 6]: LLOQ | Plasma concentration, Min [5, 6]: LLOQ | Plasma concentration, Max [5, 7]: LLOQ | Plasma concentration, Median [5, 7]: LLOQ | Plasma concentration, Min [5, 7]: LLOQ | Plasma concentration, Max [5, 8]: 1040 ng/mL | Plasma concentration, Min [5, 8]: LLOQ | Plasma concentration, Max [5, 9]: 83.8 ng/mL | Plasma concentration, Median [5, 9]: LLOQ | Plasma concentration, Min [5, 9]: LLOQ | Plasma concentration, Max [5, 10]: 2300 ng/mL | Plasma concentration, Median [5, 10]: 1170 ng/mL | Plasma concentration, Min [5, 10]: 355 ng/mL | Plasma concentration, Max [5, 11]: 3380 ng/mL | Plasma concentration, Median [5, 11]: 1010 ng/mL | Plasma concentration, Min [5, 11]: 630 ng/mL | Plasma concentration, Max [5, 12]: 4980 ng/mL | Plasma concentration, Median [5, 12]: 1490 ng/mL | Plasma concentration, Min [5, 12]: LLOQ | Plasma concentration, Max [5, 13]: 8710 ng/mL | Plasma concentration, Median [5, 13]: 2355 ng/mL | Plasma concentration, Min [5, 13]: 1680 ng/mL | Plasma concentration, Max [5, 14]: 7300 ng/mL | Plasma concentration, Median [5, 14]: 1870 ng/mL | Plasma concentration, Min [5, 14]: 87.1 ng/mL | Plasma concentration, Max [5, 15]: 7120 ng/mL | Plasma concentration, Median [5, 15]: 1420 ng/mL | Plasma concentration, Min [5, 15]: 96.3 ng/mL | Plasma concentration, Min ([5]; Concomitant, Induction cycle 1, day 22.5): LLOQ | Plasma concentration, Min ([5]; Concomitant, Induction cycle 1, day 29.5): LLOQ | Plasma concentration, Max [5, 16]: LLOQ | Plasma concentration, Median [5, 16]: LLOQ | Plasma concentration, Min [5, 16]: LLOQ | Plasma concentration, Max [5, 17]: 91.2 ng/mL | Plasma concentration, Median [5, 17]: LLOQ | Plasma concentration, Min [5, 17]: LLOQ | Plasma concentration, Max [5, 18]: 3790 ng/mL | Plasma concentration, Median [5, 18]: 1330 ng/mL | Plasma concentration, Min [5, 18]: 635 ng/mL | Plasma concentration, Max [5, 19]: 4000 ng/mL | Plasma concentration, Min [5, 19]: LLOQ | Plasma concentration, Max [5, 20]: 2880 ng/mL | Plasma concentration, Median [5, 20]: 1495 ng/mL | Plasma concentration, Min [5, 20]: 460 ng/mL | Plasma concentration, Max [5, 21]: 3660 ng/mL | Plasma concentration, Median [5, 21]: 1585 ng/mL | Plasma concentration, Min [5, 21]: 635 ng/mL | Plasma concentration, Max [5, 22]: 3290 ng/mL | Plasma concentration, Median [5, 22]: 1680 ng/mL | Plasma concentration, Min [5, 22]: 922 ng/mL | Plasma concentration, Max [5, 23]: 17100 ng/mL | Plasma concentration, Median [5, 23]: 3660 ng/mL | Plasma concentration, Min [5, 23]: 1290 ng/mL | Plasma concentration, Max [5, 24]: 19200 ng/mL | Plasma concentration, Median [5, 24]: 2755 ng/mL | Plasma concentration, Min [5, 24]: 904 ng/mL | Plasma concentration, Max [5, 25]: 4970 ng/mL | Plasma concentration, Median [5, 25]: 57.2 ng/mL | Trough concentrations during off-treatment periods ([5]; midostaurin 50 mg twice daily): low or undetectable levels
